We go through 11 compounds from patent US10918628B2, “Treatment of synucleinopathies” (Deutsches Zentrum für Neurodegenerative Erkrankungen e. V. …, priority 2016, dated 2021).

In one data set the test system is α-syn. Kind of data set: Western blot quantification of α-syn bands. Format: cell-based, human.
Data set [1] deals with α-syn overexpressing LUHMES cells. The data set can be described thus: LDH release into the culture medium as measure of α-syn-induced cell death. Format: cell-based, human. Conditions: for effect of specific PDE inhibitors on α-syn mediated toxicity (LDH release): FIG. 2B-I. A general note: Release of lactate dehydrogenase indicates damage to the cell membrane.
Data set [2] concerns α-syn transduced LUHMES neurons. Kind of data set: High-throughput screening of FDA-approved drugs for neuroprotective efficacy against α-syn (propidium iodide / Hoechst 33342 survival). Type of data set: cell-based, human. Conditions: 3 μM and 10 μM, each in triplicates (six runs); six days after transduction.
For data set [3], the system named is TH+ neurons in the substantia nigra. Kind of data set: Stereological counting of TH+ cells in the substantia nigra after intranigral rAAV injection. Type of data set: in vivo, mice. As for the experimental part: FIG. 5 Vinpocetine protects against α-syn-induced toxicity in vivo. (A) Experimental time flow. Grey bar: time point of stereotactical injection. (B) Experimental groups. Mice were injected stereotactically with either NaCl (control injection) or rAAV to overexpress luciferase (rAAV-Luc, control protein), or alpha-synuclein (rAAV-α-syn). Animals of each injection group were then randomized with a 1:1 allocation to be treated with once daily intraperitoneal injections of either solvent or vinpocetine for a 9-week period. (C) Representative images of the substantia nigra, immunostained for tyrosine hydroxylase (TH, grey) to identify dopaminergic neurons in solvent treated mice. Circle: area of cell loss upon α-syn overexpression. (D) Quantification of TH^+ cells on the control (Ctrl) side and the stereotactic injection side of solvent treated mice. On the injection side there was a significant loss of TH^+ cells (dark grey bar, right panel) after α-syn overexpression. (E) Images of the TH-immunostained substantia nigra of vinpocetine treated mice of the three injection groups. […] (F) Quantification of the number of TH^+ cells on the control (Ctrl) side and the stereotactic injection side of vinpocetine treated mice. […] Data are mean±s.e.m. Scale bars: 1 mm.
To investigate the neurotoxicity of α-syn in vivo, recombinant adeno-associated viral (rAAV) vectors were stereotactically injected into the substantia nigra of 11 weeks old mice to overexpress human wild type α-syn (rAAV-α-syn; FIG. 5A). The injection of rAAV vectors expressing luciferase (rAAV-luc) or injections with NaCl were used as controls for the toxicity of viral-mediated protein overexpression or the injection procedure itself. The treatment started one week after the intranigral injections. Therefore, the mice of each injection group (NaCl, rAAV-luc, and rAAV-α-syn) were randomized to be treated by daily intraperitoneal injections with 25 mg vinpocetine in solvent or the corresponding volume of solvent alone (FIG. 5B). All animals survived the injection procedure and treatment period. A subgroup of animals were not treated and sacrificed three weeks after injection to determine the transduction rate for rAAV-α-syn and rAAV-luc (each n=3).
To quantify the extent of neurodegeneration induced by rAAV mediated overexpression of α-syn, tyrosine-hydroxylase (TH) stainings of the substantia nigra and the striatum were performed. The number of TH^+ cells was determined by stereological counting. In the group of NaCl injected mice with solvent treatment, there was no significant difference in the number of TH^+ neurons between the injected (4108±54 cells) and the non-injected side (4168±92 cells, P=0.99, FIG. 5C, upper panel and FIG. 5D, blank columns).
To determine the efficacy of vinpocetine in vivo, the number of TH^+ cells in the substantia nigra was determined in mice treated with daily injections of 25 mg/kg vinpocetine in solvent or the corresponding amount of solvent alone.

Data set [4] deals with α-syn overexpressing LUHMES cells. The data set can be described thus: Number of vital DAPI-stained nuclei (cell counts). Format: cell-based, human. The conditions noted are these: 20 μM vinpocetine; α-syn with DMSO 57.0±3.4%. The text has this: (§1) FIG. 3 The PDE1 inhibitor vinpocetine reduces cell death and 37 kDa α-syn specimen. (A) Cell counts of untransduced control cells (Ctrl, white bar), solvent treated α-syn transduced cells (black bar) and α-syn transduced cells with treated with different concentrations of vinpocetine (dark grey bars) confirmed the protective effect of vinpocetine. […] (C) Quantification of the CellEvent™ signal in untransduced control cells (Ctrl, left bar), α-syn transduced cells treated with solvent (black bar) and vinpocetine treated α-syn transduced cells (dark grey bar). (D) Representative Western blot of control cells (Ctrl), α-syn transduced cells without or with treatment vinpocetine in different concentrations. (E-H) Quantification of specific α-syn positive Western blot bands. […] The density of the 37 kDa band positively correlated with the LDH release (r^2=0.99, P<0.001, I) and negatively correlated with the number of vital cells (r^2=0.96, P<0.01, J). *P<0.05, **P<0.01, ***<0.001, n.s. not significant, one-way ANOVA with Tukey's HSD post-hoc test. Data are mean±s.e.m.
(§2) To validate the data from the LDH measurement, we determined the number of vital 4′,6-diamidino-2-phenylindole (DAPI)-stained nuclei in untransduced control cells and α-syn overexpressing cells treated without or with ascending concentrations of vinpocetine. […]

Another data set has as its system microglial marker ibal. Conditions: mouse, in vivo.
Another data set has as its system caspase 3 and 7. The data set can be described thus: CellEvent fluorescence signal for activated caspase 3 and 7. Format: cell-based, human. The conditions noted are these: 20 μM vinpocetine; untransduced 1.0±0.2, α-syn with DMSO 74.8±5.7.
Description: as §1, §2

Setting [5] is: vinpocetine treated mice, daily intraperitoneal 25 mg/kg.

Several values for one entry are separate records, joined by “and”; a condition that tells them apart may be missing. Identical values can stand only once. Like-named read-outs stand apart in the source and are kept apart here.

Regarding `Nc1nc(-c2nn(Cc3ccccc3F)c3ncccc23)ncc1C1CC1` [BAY41-2272], in the data set with α-syn (α-Syn-transduced neurons with forskolin or BAY41-2272, FIG. 4d,e), the “change of 37 kDa α-Syn band (Western blot, C20 antibody)” value is listed as “reduction of a 37 kDa α-Syn band”. The “relative LDH release compared to α-syn overexpressing control cells” value in data set [1] (1 μM BAY41-2272) stood at 56.2±7.8%.
With `Cc1ccc([N+](=O)[O-])cc1S(=O)(=O)N(C)C` [BRL 50481], the “effect of specific PDE inhibitors on α-syn mediated toxicity (LDH release)” value (“effect of specific PDE inhibitors” below) in data set [1] (different concentrations) is given as “did not have an effect”.
Turning to `COc1ccc(Cc2nn3c([C@@H](CCCc4ccccc4)[C@@H](C)O)nc(C)c3c(=O)[nH]2)cc1OC` [Bay60-7550], in data set [1] (different concentrations), the “effect of specific PDE inhibitors” value was “did not have an effect”.
Same read-out and setting: next, `C[C@H](Cc1nc2c(cnn2-c2ccccc2Cl)c(=O)[nH]1)C(F)(F)F` [Bay 73-6691]: “did not have an effect”.
Turning to `Cc1[nH]c(=O)c(C#N)cc1-c1ccncc1` [Milrinone], the “effect of specific PDE inhibitors” value in data set [1] (different concentrations) is “did not have an effect”.
As for `COc1ccc(C2CNC(=O)C2)cc1OC1CCCC1` (stereo not drawn) [Rolipram], in data set [1] (different concentrations), the “effect of specific PDE inhibitors” value is listed as “did not have an effect”.
For `CCCc1nn(C)c2c(=O)[nH]c(-c3cc(S(=O)(=O)N4CCN(C)CC4)ccc3OCC)nc12` [Sildenafil], the “effect of specific PDE inhibitors” value in data set [1] (different concentrations) is “did not have an effect”.
In the case of `OCCN(CCO)c1nc(N2CCCCC2)c2nc(N(CCO)CCO)nc(N3CCCCC3)c2n1` [dipyridamole], the “protective hit (Z-score above 2.5) in cell survival screening” value in data set [2] is on record as “protective in all six runs”. Moreover, the “LDH level compared to α-syn overexpressing LUHMES cells with DMSO treatment” value in data set [1] (Five μM dipyridamole) is 77.0±5.1%.
For `COC(=O)C1=C(C)NC(C)=C(C(=O)OC(C)C)C1c1cccc2nonc12` (stereo not drawn) [isradipine], the “effect of cation channel blockers on α-syn mediated toxicity (LDH release)” value in data set [1] (different concentrations, FIG. 4A,B) is listed as “did not affect”.
Take `NC1=N[C@H](O)[C@H]2[C@H]3O[C@]4(O)O[C@@H]([C@@H](O)[C@@]2(N1)[C@@H]4O)[C@]3(O)CO` [tetrodotoxin]: the “effect of cation channel blockers on α-syn mediated toxicity (LDH release)” value in data set [1] is recorded as “did not affect”.
In the case of vinpocetine, in the data set with α-syn (20 μM vinpocetine), the “reduction of density of 37 kDa α-syn band compared to α-syn overexpressing cells treated with DMSO” value turned out to be 52.2±6.6%. The “α-syn monomer band compared to untransduced controls” value in the data set on α-syn (20 μM vinpocetine, DMSO treated α-syn cells 3.4±0.1-fold) stood at 5.1±0.4 fold. For the same compound, in the data set with α-syn (vinpocetine treatment, FIG. 3G,H), the “change in other α-syn bands” value is reported as “no change”. Besides, the “difference in number of TH+ neurons between solvent and vinpocetine treatment” value in data set [3] (NaCl and rAAV-luc injection groups) is given as “no difference”. Besides, in data set [3] (mice, daily intraperitoneal 25 mg/kg vinpocetine, 9-week period, solvent treated 2915±79), the “number of TH+ cells in the substantia nigra on the rAAV-α-syn injection side” value is 3870±141 cells and 3870±14 cells. Further, in data set [3] (rAAV-α-syn injected mice, vinpocetine once daily intraperitoneal, 9 weeks, FIG. 5F), the “protection against α-syn-induced cell death of TH+ neurons in vivo” value is “completely prevented α-syn-induced cell death”. In data set [3] (setting [5]), the “number of TH+ cells on the injection side, NaCl injected mice” value was 3984±160 cells and the “number of TH+ cells on the injection side, rAAV-luc injected mice” value is recorded as 3860±138 cells. Moreover, in data set [4], the “cells survived (cell number compared to untransduced controls)” value is on record as 85.1±4.1%. The “ibal-immunoreactivity, vinpocetine versus solvent treatment” value in the data set on microglial marker ibal was “nor any differences between vinpocetine and solvent treatment”. In addition, the “effect of specific PDE inhibitors” value in data set [1] (different concentrations) is listed as “significant protection in a dose dependent manner”. Further, the “relative CellEvent signal (activated caspase 3 and 7)” value in the data set with caspase 3 and 7 turned out to be 25.6±2.1.
